Assay results: US7109193B2, “Tricyclic diazepines tocolytic oxytocin receptor antagonists” (Wyeth, priority 2001, dated 2006)

Target: T1, human vasopressin V1a receptor subtype (Homo sapiens, UniProt P37288)
T1 construct: host or cells: CHO cells (pZeoSV vector for the Thibonnier line)
Test: Vasopressin binding in Chinese Hamster Ovary cell membranes expressing human vasopressin V1a subtype receptors
Conditions: 100 nM, CHO cell membranes, [3H]Manning ligand, values without parentheses
Procedure, shortened: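 Membranes from CHO cells expressing human V1a receptor were incubated with [3H]Manning ligand (added as 20 μL of 8 nM) in pH 7.4 Tris buffer with MgCl2, BSA and protease inhibitors, 60 min at room temperature. Bound radioactivity was counted after filtration; values are percent inhibition at a stated concentration or IC50.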

T1 sequence (P37288 whole entry): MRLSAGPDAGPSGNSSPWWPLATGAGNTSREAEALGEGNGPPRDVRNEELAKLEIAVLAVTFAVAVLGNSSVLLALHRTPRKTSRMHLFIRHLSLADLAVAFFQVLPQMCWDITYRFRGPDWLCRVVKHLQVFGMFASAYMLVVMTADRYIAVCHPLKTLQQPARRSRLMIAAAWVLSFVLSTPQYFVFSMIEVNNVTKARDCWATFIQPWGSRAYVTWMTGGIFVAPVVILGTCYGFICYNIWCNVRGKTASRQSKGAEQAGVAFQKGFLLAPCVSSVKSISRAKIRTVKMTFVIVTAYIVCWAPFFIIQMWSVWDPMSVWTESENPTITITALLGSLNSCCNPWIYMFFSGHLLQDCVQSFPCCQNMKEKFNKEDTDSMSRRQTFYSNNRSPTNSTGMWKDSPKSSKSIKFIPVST

inhibition at 0.1 µM [%]	SMILES
27	COc1cccc(-c2ccc(C(=O)N3Cc4ccc(C(=O)N(C)C5CCN(C)CC5)n4Cc4ccccc43)cc2C)c1 [Example 176, 10-[(3′-Methoxy-2-methyl[1,1′-biphenyl]-4-yl)carbonyl]-N-methyl-N-(1-methyl-4-piperidinyl)-10,11-dihydro-5H-pyrrolo[2,1-c][1,4]benzodiazepine-3-carboxamide]
8	Cc1cc(C(=O)N2Cc3ccc(C(=O)NCCN4CCCCC4)n3Cc3ccccc32)ccc1-c1ccccc1C(F)(F)F [Example 161, 10-{[2-Methyl-2′-(trifluoromethyl)[1,1′-biphenyl]-4-yl]carbonyl}-N-[2-(1-piperidinyl)ethyl]-10,11-dihydro-5H-pyrrolo[2,1-c][1,4]benzodiazepine-3-carboxamide]
45	COc1cccc(-c2ccc(C(=O)N3Cc4ccc(C(=O)N5CCN(CCN6CCOCC6)CC5)n4Cc4ccccc43)cc2OC)c1 [Example 211, {10-[(2,3′-Dimethoxy[1,1′-biphenyl]-4-yl)carbonyl]-10,11-dihydro-5H-pyrrolo[2,1-c][1,4]benzodiazepin-3-yl}{4-[2-(4-morpholinyl)ethyl]-1-piperazinyl}methanone]
64	Cc1ccccc1-c1ccc(C(=O)N2Cc3ccc(C(=O)N4CCN(CCN(C)C)CC4)n3Cc3ccccc32)cc1 [Example 200, {4-[2-(Dimethylamino)ethyl]-1-piperazinyl}{10-[(2′-methyl[1,1′-biphenyl]-4-yl)carbonyl]-10,11-dihydro-5H-pyrrolo[2,1-c][1,4]benzodiazepin-3-yl}methanone]
